The target of the test is T1, Amyloid-beta A4 precursor protein-binding family A member 1 (Rattus norvegicus, UniProt O35430).
T1 sequence (O35430 whole entry): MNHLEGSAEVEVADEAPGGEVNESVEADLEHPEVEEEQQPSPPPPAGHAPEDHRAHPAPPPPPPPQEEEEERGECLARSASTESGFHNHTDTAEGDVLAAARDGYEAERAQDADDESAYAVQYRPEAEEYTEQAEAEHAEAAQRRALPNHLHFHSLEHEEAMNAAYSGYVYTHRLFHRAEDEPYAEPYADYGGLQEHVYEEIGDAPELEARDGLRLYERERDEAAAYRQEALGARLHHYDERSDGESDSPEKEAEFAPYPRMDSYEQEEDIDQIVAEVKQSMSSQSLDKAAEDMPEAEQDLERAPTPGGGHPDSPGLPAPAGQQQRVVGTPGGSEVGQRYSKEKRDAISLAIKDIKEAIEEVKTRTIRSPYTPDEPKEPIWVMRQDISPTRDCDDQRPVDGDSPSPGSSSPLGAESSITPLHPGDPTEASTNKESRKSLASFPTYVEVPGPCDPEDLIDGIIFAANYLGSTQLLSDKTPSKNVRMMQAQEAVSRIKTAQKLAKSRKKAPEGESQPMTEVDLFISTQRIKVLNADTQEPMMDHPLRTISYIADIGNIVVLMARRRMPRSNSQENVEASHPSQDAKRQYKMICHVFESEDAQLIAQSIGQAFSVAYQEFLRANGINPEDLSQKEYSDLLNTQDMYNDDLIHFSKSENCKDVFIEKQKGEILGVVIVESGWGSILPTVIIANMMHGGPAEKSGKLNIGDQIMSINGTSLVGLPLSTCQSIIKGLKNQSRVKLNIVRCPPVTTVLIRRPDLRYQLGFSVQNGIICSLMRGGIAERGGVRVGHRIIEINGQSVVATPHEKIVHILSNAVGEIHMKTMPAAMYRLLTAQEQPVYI
The test can be described thus: disruptors of Mint-PDZ/N-type channel peptide interaction – biochemical, HTRF, SAR follow-up (AID 2489). (Time-resolved FRET reads energy transfer from a long-lived donor to a nearby acceptor.)

Each structure is given as a SMILES string. Values joined by “and” are separate entries in the source; they are usually repeats but may differ in a detail not shown here. Equal entries are not always repeated.

Broadly, the IC50 is the point on the concentration scale where inhibition reaches its midpoint. Low values mean inhibition by little substance, high ones a need for much substance. Molecule `COC(=O)c1cc(-n2c(O)c3c(c2O)C2(C)C=CC3(C)O2)ccc1Cl` [MLS000107828] had an IC50 of more than 56.8 µM.
The value for `Cc1ccc(-n2c(O)c3c(c2O)C2(C)C=CC3(C)O2)cc1` was 11.5 µM.
Molecule `CCCCc1ccc(CC2=C(C(=O)OCC)C(=O)c3ccccc3C2=O)cc1` registered an IC50 of 16.2 µM.
The value for `CC(=O)Oc1ccc(-n2c(O)c3c(c2O)C2(C)C=CC3(C)O2)cc1` [MLS000107813] was 7.82 µM; that for `CC(=O)Oc1ccc(-n2c(O)c3c(c2O)C2C=CC3O2)cc1` [[4-(1,3-dioxo-3a,4,7,7a-tetrahydro-octahydro-1H-4,7-epoxyisoindol-2-yl)phenyl] acetate] was more than 56.8 µM.
Next, `CC12C=CC(C)(O1)c1c2c(O)n(-c2ccc(F)cc2)c1O` [2-(4-fluorophenyl)-4,7-dimethyl-3a,7a-dihydro-octahydro-1H-4,7-epoxyisoindole-1,3-dione]: 10.7 µM; `Cc1cccc(-n2c(O)c3c(c2O)C2(C)C=CC3(C)O2)c1` [4,7-dimethyl-2-(3-methylphenyl)-3a,7a-dihydro-octahydro-1H-4,7-epoxyisoindole-1,3-dione]: 27.6 µM.
The value for `CC12C=CC(C)(O1)c1c2c(O)n(-c2ccccc2)c1O` [4,7-dimethyl-2-phenyl-3a,7a-dihydro-octahydro-1H-4,7-epoxyisoindole-1,3-dione] was 11.7 µM.
Regarding `CC(=O)Oc1cccc(-n2c(O)c3c(c2O)C2(C)C=CC3(C)O2)c1`, the half-maximal inhibitory concentration (IC50) is 12 µM and 18.3 µM.
The value for `CCCc1ccc(CC2=C(C(=O)OCC)C(=O)c3ccccc3C2=O)cc1` [MLS000571357] was 7.19 µM.
Next, `CC12C=CC(C)(O1)c1c2c(O)n(-c2ccc(Cl)cc2)c1O`: more than 56.8 µM; `CC12C=CC(C)(O1)c1c2c(O)n(-c2ccc3c(c2)OCO3)c1O`: more than 56.8 µM.

The values above are taken from BindingDB's records for doi:10.7270/Q21V5CDC (Burnham Center For Chemical Genomics, 2010).
